For assay [1], the target named is Epidermal growth factor receptor (Homo sapiens, UniProt P00533, L858R). Put plainly: Inhibition of EGFR L858R mutant (unknown origin) using Tyr 4 peptide as substrate after 1.5 hrs by FRET-based Z'-LYTE assay. Type of assay: protein assay.
Assay [2] in a line: Antiproliferative activity against gefitinib-sensitive human HCC827 cells harboring EGFR E746 to A750 deletion after 72 hrs by MTS assay. Type of assay: functional, cell-based. To be noted: HCC827, 72 h. A general note: Formazan colour is commonly taken as a measure of viable cells.
The target of assay [3] is Epidermal growth factor receptor (Homo sapiens, UniProt P00533, L858R/T790M). As to the kind of experiment: (§1) Inhibition of EGFR T790M/L858R double mutant (unknown origin) using Tyr 4 peptide as substrate after 1.5 hrs by FRET-based Z'-LYTE assay. It is filed as protein assay.
Assay [4] has as its target Epidermal growth factor receptor (Homo sapiens, UniProt P00533). As to the kind of experiment: Inhibition of wild type EGFR (unknown origin) using Tyr 4 peptide as substrate after 1.5 hrs by FRET-based Z'-LYTE assay.
For the next assay, the system named is NCI-H1975. As to the kind of experiment: cells. It is filed as functional, cell-based. The conditions noted are these: Homo sapiens, NCI-H1975, 72 h.
For assay [5], the target named is Epidermal growth factor receptor (Homo sapiens, UniProt P00533, T790M/L858R). The description is as §1. Type of assay: protein assay.

A value given as a limit tells only on which side of the number the result lay.

A word on the IC50: it is the concentration at which inhibition is half-maximal. Consider `C=CC(=O)Nc1ccc(-n2c(=O)c(C)nc3cnc(Nc4ccc(OC)cc4)nc32)cc1`, for which the IC50 in assay [1] (read-out: IC50) is 7170 nM; in assay [2], 2760 nM; in assay [3] it was 35000 nM; in assay [4] (read-out: IC50) it was 16300 nM; with NCI-H1975 it was over 10 µM.
`C=CC(=O)Nc1ccc(Nc2ncc3ncc(=O)n(-c4ccc(OC)cc4)c3n2)cc1`: the half-inhibitory concentration (IC50) in assay [1] (read-out: IC50) was 70600 nM; in assay [2] it was 1460 nM; in assay [3], 70200 nM; in assay [4] (read-out: IC50), 33900 nM; in the assay with NCI-H1975, 1.33 µM.
In the case of `C=CC(=O)Nc1cccc(-n2c(=O)cnc3cnc(Nc4ccc(N5CCN(C)CC5)cc4)nc32)c1`, the half-inhibitory concentration (IC50) in assay [1] (read-out: IC50) was 1.32 nM; in assay [2] it was 4.02 nM; in assay [3], 0.677 nM; in assay [4] (read-out: IC50), 1.21 nM; with NCI-H1975, 0.0622 µM.
In the case of `C=CC(=O)Nc1ccc(-n2c(=O)cnc3cnc(Nc4ccc(N5CCOCC5)cc4)nc32)cc1`, the half-maximal inhibitory concentration (IC50) in assay [1] (read-out: IC50) is 8670 nM; in assay [2] it was 7160 nM; in assay [3] it was 3460 nM; in assay [4] (read-out: IC50), 5590 nM; in the assay with NCI-H1975, over 10 µM.
For the compound `COc1ccc(-n2c(=O)cnc3cnc(Nc4cccc(N)c4)nc32)cc1`, the concentration for half-maximal inhibition (IC50) was 8040 nM in assay [1] (read-out: IC50); over 10000 nM in assay [2]; 3840 nM in assay [3]; 18300 nM in assay [4] (read-out: IC50); over 10 µM in the assay on NCI-H1975.
For `C=CC(=O)Nc1ccc(-n2c(=O)cnc3cnc(Nc4ccc(Cl)cc4)nc32)cc1` the same measures were 496 nM, over 10000 nM, 144 nM, 374 nM and over 10 µM.
For `COc1ccc(Nc2ncc3ncc(=O)n(-c4ccc(N)cc4)c3n2)cc1`, the IC50 result is “Not Active” in assay [1]; over 10000 nM in assay [2]; “Not Active” in assay [5]; “Not Active” in assay [4]; over 10 µM with NCI-H1975.
Turning to `C=CC(=O)Nc1cccc(-n2c(=O)cnc3cnc(Nc4ccc(Cl)cc4)nc32)c1`, the half-maximal inhibitory concentration (IC50) in assay [1] (read-out: IC50) came to 49.1 nM; in assay [2], 175 nM; in assay [3], 17.6 nM; in assay [4] (read-out: IC50) it was 47.1 nM; in the assay with NCI-H1975, 2.24 µM.
For `C=CC(=O)Oc1ccc(-n2c(=O)cnc3cnc(Nc4ccc(OC)cc4)nc32)cc1` the same measures were 123 nM, 8590 nM, 59.1 nM, 60.4 nM and 5.9 µM.
As to `CN(C)C/C=C/C(=O)Nc1ccc(-n2c(=O)cnc3cnc(Nc4ccccc4)nc32)cc1`, the IC50 result in assay [1] is “Not Active”; in assay [2] it was 5010 nM; in assay [5], “Not Active”; in assay [4], “Not Active”; in the assay on NCI-H1975, over 10 µM.
With `CCC(=O)Nc1cccc(-n2c(=O)cnc3cnc(Nc4ccc(OC)cc4)nc32)c1`, the IC50 result is “Not Active” in assay [1]; over 10000 nM in assay [2]; “Not Active” in assay [5]; “Not Active” in assay [4]; over 10 µM in the assay on NCI-H1975.
Regarding `C=CC(=O)Nc1ccc(-n2c(=O)cnc3cnc(Nc4ccccc4)nc32)cc1`, the IC50 entry in assay [1] was “Not Active”; in assay [2] it was over 10000 nM; in assay [5], “Not Active”; in assay [4], “Not Active”; with NCI-H1975, over 10 µM.
For the compound `C=CC(=O)Nc1ccc(-n2c(=O)cnc3cnc(Nc4ccc(OC)cc4)nc32)cc1`, the IC50 in assay [1] (read-out: IC50) was 23700 nM; in assay [2], 1690 nM; in assay [3], 4800 nM; in assay [4] (read-out: IC50), 5130 nM; in the assay on NCI-H1975, 2.2 µM.
In the case of `CCC(=O)Nc1ccc(-n2c(=O)cnc3cnc(Nc4ccc(OC)cc4)nc32)cc1`, the 50% inhibitory concentration (IC50) result in assay [1] was “Not Active”; in assay [2], over 10000 nM; in assay [5], “Not Active”; in assay [4] it was “Not Active”; in the assay on NCI-H1975, over 10 µM.
With `COc1ccc(Nc2ncc3ncc(=O)n(-c4cccc(NC(=O)/C=C/CN(C)C)c4)c3n2)cc1`, the 50% inhibitory concentration (IC50) in assay [1] (read-out: IC50) was 32800 nM; in assay [2] it was 917 nM; in assay [3] it was 56200 nM; in assay [4] (read-out: IC50), 26300 nM; in the assay with NCI-H1975, 0.559 µM.
With `COc1ccc(-n2c(=O)cnc3cnc(Nc4ccc(N)cc4)nc32)cc1`, the IC50 is 8450 nM in assay [1] (read-out: IC50), over 10000 nM in assay [2], 25800 nM in assay [4] (read-out: IC50) and over 10 µM in the assay on NCI-H1975.
On to `C=CC(=O)Nc1cccc(Nc2ncc3ncc(=O)n(-c4ccc(OC)cc4)c3n2)c1`, for which the IC50 result in assay [1] was “Not Active”; in assay [2] it was 1220 nM; in assay [5], “Not Active”; in assay [4], “Not Active”; with NCI-H1975, 2.36 µM.
Take `C=CC(=O)Nc1cccc(-n2c(=O)cnc3cnc(Nc4ccc(N5CCCC5)cc4)nc32)c1`: the IC50 amounted to 13 nM in assay [1] (read-out: IC50); 70.8 nM in assay [2]; 4.96 nM in assay [3]; 15.3 nM in assay [4] (read-out: IC50); 0.579 µM in the assay on NCI-H1975.
For the compound `C=CC(=O)Nc1cccc(-n2c(=O)cnc3cnc(Nc4ccc(NC(C)=O)cc4)nc32)c1`, the half-maximal inhibitory concentration (IC50) in assay [1] (read-out: IC50) came to 14 nM; in assay [2], 388 nM; in assay [3], 4.53 nM; in assay [4] (read-out: IC50) it was 12.5 nM; in the assay on NCI-H1975, 4.08 µM.
For `C=CC(=O)Nc1ccc(-n2c(=O)cnc3cnc(Nc4ccc(N5CCN(C)CC5)cc4OC)nc32)cc1`, the IC50 came out at 496 nM in assay [1] (read-out: IC50); 503 nM in assay [2]; 272 nM in assay [3]; 395 nM in assay [4] (read-out: IC50); 2.74 µM in the assay on NCI-H1975.
For `C=CC(=O)Nc1cccc(-n2c(=O)cnc3cnc(Nc4ccc(OC)cc4)nc32)c1`, the 50% inhibitory concentration (IC50) amounted to 14.8 nM in assay [1] (read-out: IC50); 9.49 nM in assay [2]; 5.6 nM in assay [3]; 13.8 nM in assay [4] (read-out: IC50); 0.0638 µM with NCI-H1975.
In the case of `COc1ccc(Nc2ncc3ncc(=O)n(-c4cccc(N)c4)c3n2)cc1`, the IC50 was 55900 nM in assay [1] (read-out: IC50); over 10000 nM in assay [2]; 21300 nM in assay [3]; “Not Active” in assay [4]; over 10 µM in the assay with NCI-H1975.
On to `C=CC(=O)Nc1cccc(-n2c(=O)cnc3cnc(Nc4ccc(N(CC)CC)cc4)nc32)c1`, for which the half-inhibitory concentration (IC50) in assay [1] (read-out: IC50) was 14.1 nM; in assay [2], 44.5 nM; in assay [3] it was 4.72 nM; in assay [4] (read-out: IC50), 14.5 nM; with NCI-H1975, 4.09 µM.
With `C=CC(=O)Nc1cccc(-n2c(=O)cnc3cnc(Nc4ccc(C(N)=O)cc4)nc32)c1`, the IC50 was 11.8 nM in assay [1] (read-out: IC50); 511 nM in assay [2]; 3.97 nM in assay [3]; 12.1 nM in assay [4] (read-out: IC50); 8.48 µM in the assay on NCI-H1975.
Regarding `C=CC(=O)Nc1ccc(-n2c(=O)cnc3cnc(Nc4ccc(N5CCN(C)CC5)cc4)nc32)cc1`, the IC50 in assay [1] (read-out: IC50) was 1510 nM; in assay [2] it was 2370 nM; in assay [3], 691 nM; in assay [4] (read-out: IC50) it was 1100 nM; in the assay on NCI-H1975 it was 6.15 µM.
As for `COc1ccc(Nc2ncc3ncc(=O)n(-c4ccc(NC(=O)/C=C/CN(C)C)cc4)c3n2)cc1`, the IC50 is 76.5 nM in assay [1] (read-out: IC50); 8380 nM in assay [2]; 31.3 nM in assay [3]; 59.1 nM in assay [4] (read-out: IC50); over 10 µM with NCI-H1975.
For the compound `C=CC(=O)Nc1cccc(-n2c(=O)cnc3cnc(Nc4ccc(N5CCOCC5)cc4)nc32)c1`, the half-inhibitory concentration (IC50) in assay [1] (read-out: IC50) came to 7.26 nM; in assay [2], 15.2 nM; in assay [3], 2.86 nM; in assay [4] (read-out: IC50), 6.95 nM; in the assay on NCI-H1975 it was 0.255 µM.
For `C=CC(=O)Nc1cccc(-n2c(=O)cnc3cnc(Nc4ccc(N5CCCCC5)cc4)nc32)c1`, the IC50 in assay [1] (read-out: IC50) was determined as 14.8 nM; in assay [2] it was 25.3 nM; in assay [3], 5.12 nM; in assay [4] (read-out: IC50) it was 15.7 nM; in the assay with NCI-H1975, 0.298 µM.

The values are drawn from ChEMBL document CHEMBL2434822, “Discovery of pteridin-7(8H)-one-based irreversible inhibitors targeting the epidermal growth factor receptor (EGFR) kinase T790M/L858R mutant” (J Med Chem, 2013).
